Results on 7 compounds are retold here after ChEMBL document CHEMBL4321813, “Discovery of GSK3527497: A Candidate for the Inhibition of Transient Receptor Potential Vanilloid-4 (TRPV4)” (J Med Chem, 2019).

In brackets after ≈: the same amount, converted by molar mass. Some results are limits rather than exact numbers.

A word on the IC50: it is the midpoint of a concentration-inhibition curve. By solubility is commonly meant the concentration that dissolves in the medium under given conditions. High values mean much dissolved substance, low ones little dissolved substance. Broadly, the MRT is the average time that molecules of a dose stay in the body. The term clearance denotes the volume of plasma or blood freed of the substance per unit of time. Higher therefore signals a high capacity for elimination. One may read the bioavailability as dose-corrected exposure relative to a reference, in per cent. The chromatographic logD is a lipophilicity value derived from retention on a column. The low end stands for lower lipophilicity, the high end for higher lipophilicity. A word on the fraction unbound: it is free concentration divided by total concentration. A word on the Papp: it is the rate of passage across a membrane or cell layer, normalised by area and donor concentration.

The nature of data set [1]: Unbound clearance in Sprague-Dawley rat at 1 mg/kg, iv administered as 30 mins infusion by HPLC-MS/MS analysis. In kind it is ADME, organism-based. Conditions: in vivo, 0.5 h.
Data set [2] is described as follows: Volume of distribution at steady state in Sprague-Dawley rat at 1 mg/kg, iv administered as 30 mins infusion or 1 to 2 mg/kg, po by HPLC-MS/MS analysis. In kind it is ADME, organism-based. The note with it: in vivo, read-out: Vdss.
Data set [3] addresses Transient receptor potential cation channel subfamily V member 4 (Homo sapiens, UniProt Q9HBA0). Put plainly: Antagonist activity at BacMam virus expressing human TRPV4 transduced in BHK/AC9 or HEK MSR2 cells assessed as inhibition of GSK634775-induced Ca2+ flux preincubated for 10 mins followed by agonist addition by Fluo-4 AM dye based FLIPR assay. The class given is cell-based. A general note: Calcium assays in cells follow changes in intracellular calcium, usually with a dye or a luminescent sensor.

Data set [4] is described as follows: Solubility of the compound in FaSSIF measured after 4 hrs. In kind it is physicochemical.
Data set [5] can be described thus: Unbound volume of distribution at steady state in Sprague-Dawley rat at 1 mg/kg, iv administered as 30 mins infusion or 1 to 2 mg/kg, po by HPLC-MS/MS analysis. In kind it is ADME, organism-based. Conditions: in vivo, 0.5 h.
Data set [6] is described as follows: MRT in Sprague-Dawley rat at 1 mg/kg, iv administered as 30 mins infusion by HPLC-MS/MS analysis. The class given is ADME, organism-based. Conditions: in vivo.
Data set [7] can be described thus: Clearance in Sprague-Dawley rat at 1 mg/kg, iv administered as 30 mins infusion by HPLC-MS/MS analysis. In kind it is ADME, organism-based. Conditions: in vivo.
Data set [8] in a line: Oral bioavailability in Sprague-Dawley rat at 1 to 2 mg/kg by HPLC-MS/MS analysis. The class given is ADME, organism-based. Conditions: in vivo.
Data set [9] is described as follows: Lipophilicity, log D of the compound at pH 7.4 by chromatographic method. The note with it: buffer. In kind it is physicochemical.
Data set [10] in a line: Protein binding in rat plasma assessed as unbound fraction. In kind it is ADME, cell-free.
The nature of data set [11]: Ratio of unbound clearance in Sprague-Dawley rat at 1 mg/kg, iv administered as 30 mins infusion to unbound clearance in dog. The class given is ADME, organism-based. Conditions: in vivo, 0.5 h.
Data set [12] in a line: Unbound volume of distribution at steady state in dog. The class given is ADME, Canis lupus familiaris. The note with it: in vivo.
Data set [13] is described as follows: Oral bioavailability in Sprague-Dawley rat at 100 mg/kg by HPLC-MS/MS analysis. In kind it is ADME, organism-based. The note with it: in vivo.
Another data set deals with Cytochrome P450 3A4 (Homo sapiens, UniProt P08684). Put plainly: Inhibition of CYP3A4 (unknown origin). The class given is ADME.
Data set [14] addresses Voltage-gated inwardly rectifying potassium channel KCNH2 (Homo sapiens, UniProt Q12809). Put plainly: Inhibition of human ERG by electrophysiology.
Data set [15] is described as follows: Dose normalized AUC in Sprague-Dawley rat at 100 mg/kg, po by HPLC-MS/MS analysis. The class given is ADME, organism-based. The note with it: in vivo.
A short description of data set [16]: Protein binding in dog plasma assessed as unbound fraction. The class given is ADME, cell-free, Canis lupus familiaris.
Data set [17] in a line: Volume of distribution at steady state in dog. The note with it: in vivo, read-out: Vdss. The class given is ADME, Canis lupus familiaris.
Data set [18] in a line: Dose normalized AUC in Sprague-Dawley rat at 2 mg/kg, po by HPLC-MS/MS analysis. The class given is ADME, organism-based. The note with it: in vivo.
Data set [19] is described as follows: Oral bioavailability in dog. The class given is ADME, organism-based, Canis lupus familiaris. Conditions: in vivo.
Data set [20] can be described thus: Mean residence time in dog. The class given is ADME, Canis lupus familiaris. Conditions: in vivo.
Data set [21] in a line: Apparent permeability in dog MDCK cells. In kind it is ADME, cell-based, Canis lupus familiaris.
A short description of data set [22]: Unbound clearance in dog. The class given is ADME, Canis lupus familiaris. Conditions: in vivo.
A short description of data set [23]: Clearance in dog. The class given is ADME, Canis lupus familiaris. Conditions: in vivo.
A short description of data set [24]: Unbound AUC in human. In kind it is ADME.

Transient receptor potential cation channel subfamily V member 4, sequence (Q9HBA0 whole entry): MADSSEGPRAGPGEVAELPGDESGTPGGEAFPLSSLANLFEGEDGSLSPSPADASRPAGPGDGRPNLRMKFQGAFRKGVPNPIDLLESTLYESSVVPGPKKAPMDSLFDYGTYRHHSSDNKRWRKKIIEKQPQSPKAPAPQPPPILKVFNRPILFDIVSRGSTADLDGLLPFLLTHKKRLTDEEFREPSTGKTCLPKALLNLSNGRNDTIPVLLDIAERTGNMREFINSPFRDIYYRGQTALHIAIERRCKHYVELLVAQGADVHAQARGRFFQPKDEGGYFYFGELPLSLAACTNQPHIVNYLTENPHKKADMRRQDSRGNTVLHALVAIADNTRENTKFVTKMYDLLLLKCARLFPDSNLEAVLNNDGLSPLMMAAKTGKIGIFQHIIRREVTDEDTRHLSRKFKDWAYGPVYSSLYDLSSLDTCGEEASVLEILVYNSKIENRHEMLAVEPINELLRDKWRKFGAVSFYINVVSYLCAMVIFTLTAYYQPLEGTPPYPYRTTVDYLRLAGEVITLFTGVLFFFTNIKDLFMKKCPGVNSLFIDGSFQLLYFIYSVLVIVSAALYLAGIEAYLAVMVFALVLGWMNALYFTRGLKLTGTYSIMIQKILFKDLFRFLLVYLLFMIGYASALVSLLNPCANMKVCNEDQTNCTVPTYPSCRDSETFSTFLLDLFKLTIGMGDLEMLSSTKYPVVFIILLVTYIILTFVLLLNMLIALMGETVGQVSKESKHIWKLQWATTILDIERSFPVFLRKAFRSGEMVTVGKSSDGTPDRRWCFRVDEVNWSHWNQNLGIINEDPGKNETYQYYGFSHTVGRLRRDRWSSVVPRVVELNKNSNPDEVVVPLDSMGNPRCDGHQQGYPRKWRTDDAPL
Cytochrome P450 3A4, sequence (P08684 whole entry): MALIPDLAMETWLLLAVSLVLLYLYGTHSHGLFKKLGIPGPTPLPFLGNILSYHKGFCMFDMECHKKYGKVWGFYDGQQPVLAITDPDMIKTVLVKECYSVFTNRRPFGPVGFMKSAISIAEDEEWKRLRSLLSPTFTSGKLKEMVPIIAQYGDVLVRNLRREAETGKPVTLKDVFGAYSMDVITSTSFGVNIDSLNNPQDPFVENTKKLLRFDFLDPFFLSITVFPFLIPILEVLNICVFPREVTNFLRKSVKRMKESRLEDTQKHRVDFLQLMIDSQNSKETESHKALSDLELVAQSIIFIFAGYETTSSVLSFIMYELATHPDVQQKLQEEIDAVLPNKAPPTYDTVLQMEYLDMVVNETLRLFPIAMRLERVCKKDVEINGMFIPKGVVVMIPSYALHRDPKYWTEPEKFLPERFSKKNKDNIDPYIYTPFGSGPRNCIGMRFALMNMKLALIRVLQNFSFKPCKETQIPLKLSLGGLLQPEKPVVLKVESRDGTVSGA
Voltage-gated inwardly rectifying potassium channel KCNH2, sequence (Q12809 whole entry): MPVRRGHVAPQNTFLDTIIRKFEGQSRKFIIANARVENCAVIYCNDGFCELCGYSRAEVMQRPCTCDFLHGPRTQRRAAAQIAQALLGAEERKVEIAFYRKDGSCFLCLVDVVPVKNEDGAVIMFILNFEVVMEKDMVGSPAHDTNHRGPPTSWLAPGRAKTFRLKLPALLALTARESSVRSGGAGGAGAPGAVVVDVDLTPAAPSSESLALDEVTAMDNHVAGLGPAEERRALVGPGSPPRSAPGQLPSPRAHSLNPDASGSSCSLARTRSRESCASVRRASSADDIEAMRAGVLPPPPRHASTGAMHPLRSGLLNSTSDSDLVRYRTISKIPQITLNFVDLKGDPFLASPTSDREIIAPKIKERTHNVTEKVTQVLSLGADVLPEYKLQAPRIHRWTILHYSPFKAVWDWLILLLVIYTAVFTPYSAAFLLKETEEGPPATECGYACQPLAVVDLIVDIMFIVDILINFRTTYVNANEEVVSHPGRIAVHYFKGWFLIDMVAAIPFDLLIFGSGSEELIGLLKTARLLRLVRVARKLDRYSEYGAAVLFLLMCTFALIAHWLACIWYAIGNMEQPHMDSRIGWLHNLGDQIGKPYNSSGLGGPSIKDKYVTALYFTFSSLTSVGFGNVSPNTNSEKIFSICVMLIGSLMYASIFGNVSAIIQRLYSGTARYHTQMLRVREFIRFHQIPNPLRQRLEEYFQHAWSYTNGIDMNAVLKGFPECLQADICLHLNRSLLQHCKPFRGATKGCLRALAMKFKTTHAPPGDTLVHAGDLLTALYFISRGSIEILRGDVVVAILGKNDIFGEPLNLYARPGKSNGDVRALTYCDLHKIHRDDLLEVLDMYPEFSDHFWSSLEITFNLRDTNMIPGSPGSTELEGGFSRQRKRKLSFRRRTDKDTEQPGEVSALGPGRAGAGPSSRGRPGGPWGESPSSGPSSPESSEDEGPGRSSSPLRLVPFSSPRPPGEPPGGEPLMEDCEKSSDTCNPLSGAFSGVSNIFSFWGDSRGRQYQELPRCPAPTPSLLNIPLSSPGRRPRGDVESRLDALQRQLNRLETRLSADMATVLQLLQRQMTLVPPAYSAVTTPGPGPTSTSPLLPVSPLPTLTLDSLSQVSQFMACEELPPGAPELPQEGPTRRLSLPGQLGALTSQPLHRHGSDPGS

On to `N#Cc1ccc(O[C@H]2CN(S(=O)(=O)c3ccc(C(F)(F)F)nc3)C[C@@]2(O)CO)cc1F`, for which the CL free in [1] is 210 mL/min/kg. In addition, the Vd in data set [2] was 4.1 L/kg. Also, the IC50 in data set [3] amounted to 175 nM. Moreover, the solubility at 4 h in data set [4] was found to be 98 µg/mL (≈ 212 µM). Further, the Vduss in [5] was found to be 28 L/kg. In data set [6], this compound came in with an MRT of 2.3 h. The clearance in data set [7] was 31 mL/min/kg. This compound also came in with a bioavailability in [8] of 100%. The compound also yielded a chromatographic logD in data set [9] of 4.2. Moreover, the free fraction (fraction unbound) in data set [10] was determined as 0.147. For the same compound, the Ratio in data set [11] was 13.

In the case of `N#Cc1ccc(S(=O)(=O)[C@H]2CN(S(=O)(=O)c3ccc(Cl)cn3)C[C@@]2(O)CO)cc1`, in [3], the half-inhibitory concentration (IC50) is 3800 nM. The compound also returned a solubility at 4 h in data set [4] of more than 1000 µg/mL. In data set [9], this compound gave a chromatographic logD of 3.1.

In data set [1], `N#Cc1ccc(O[C@H]2CN(S(=O)(=O)c3ccc(Cl)cc3)C[C@@]2(O)CO)cc1F` gave a CL free of 1540 mL/min/kg. The Vd in [2] came out at 6 L/kg. Also, the IC50 in [3] was found to be 53 nM. For the same compound, in data set [4], the solubility at 4 h stood at 44 µg/mL (≈ 103 µM). Also, in [5], the Vduss turned out to be 170 L/kg. The compound further had an MRT in data set [6] of 1.9 h. The clearance in [7] was found to be 54 mL/min/kg. In addition, the bioavailability in [8] stood at 83%. This compound also came in with a chromatographic logD in data set [9] of 4.1. Also, the free fraction (fraction unbound) in data set [10] is 0.035.

In the case of `N#Cc1ccc(S(=O)(=O)[C@H]2CN(S(=O)(=O)c3ccc(Cl)cc3Cl)C[C@@]2(O)CO)cc1`, the CL free in data set [1] worked out at 925 mL/min/kg. The IC50 in [3] stood at 8 nM. The solubility at 4 h in [4] was found to be 270 µg/mL (≈ 549 µM). This compound also had a Vduss in data set [5] of 85 L/kg. In [8], the bioavailability was 100%. The compound also yielded a chromatographic logD in data set [9] of 4.5. Also, in [10], the fraction unbound amounted to 0.027.

In the case of `N#Cc1ccc(O[C@H]2CN(S(=O)(=O)c3ccc(Cl)cn3)C[C@@]2(O)CN)cc1F`, the Vduss in data set [12] was determined as 18 L/kg; in data set [5] it was 47 L/kg. Further, the CL free came to 320 mL/min/kg in [1] and 18 mL/min/kg in data set [22]. The Vd in [2] came out at 6.7 L/kg; in data set [17], 5.9 L/kg. For the same compound, the values for the bioavailability in data set [13], in [8] and in [19] were 87%, 26% and 84%, respectively. Further, the results for the IC50 (in [3]; against Cytochrome P450 3A4; in data set [14]) were 12 nM, 12000 nM and 20000 nM, respectively. In data set [4], the solubility at 4 h was more than 1000 µg/mL. The AUC/dose in data set [15] was determined as 0.31 kg·h/L; in data set [18], 0.092 kg·h/L. In addition, the fraction unbound stood at 0.32 in data set [16] and 0.14 in data set [10]. Further, the values for the MRT in data set [6] and in data set [20] were 2.5 h and 17 h, respectively. The clearance in [7] is 45 mL/min/kg; in data set [23], 5.9 mL/min/kg. In addition, the Papp in data set [21] was determined as 0.08 ×10⁻⁶ cm/s. The chromatographic logD in data set [9] was determined as 2.5. The Ratio in data set [11] is on record as 18.

Take `N#Cc1ccc(O[C@H]2CN(S(=O)(=O)c3ccc(Cl)cc3Cl)C[C@@]2(O)CN)cc1F` (racemic): in [1], the CL free was found to be 1100 mL/min/kg. Moreover, the Vd in [2] is 7.7 L/kg. The fAUC in data set [24] was determined as 170 ng·h/mL. Besides, the IC50 in [3] was determined as 3.5 nM; on Cytochrome P450 3A4, 1600 nM. In addition, the concentration in solution in data set [4] (solubility at 4 h) came to 78 µg/mL (≈ 169 µM). In data set [5], this compound registered a Vduss of 210 L/kg. In addition, in [6], the MRT was found to be 3.2 h. This compound also showed a clearance in data set [7] of 40 mL/min/kg. The bioavailability in data set [8] was determined as 24%. The same compound had a chromatographic logD in [9] of 4. Further, the fraction unbound in [10] came to 0.036.

`N#Cc1ccc(O[C@H]2CN(S(=O)(=O)c3ccc(Cl)cc3Cl)CC2(O)CO)cc1F` (single isomer, unassigned): the CL free in [1] came out at 1350 mL/min/kg. Also, the Vd in data set [2] amounted to 13 L/kg. Also, in data set [3], the IC50 turned out to be 33 nM. Moreover, the solubility at 4 h in data set [4] was 88 µg/mL (≈ 191 µM). In data set [5], this compound displayed a Vduss of 330 L/kg. The MRT in [6] came to 4.8 h. The compound further yielded a clearance in data set [7] of 54 mL/min/kg. In [8], this compound displayed a bioavailability of 100%. Also, in data set [9], the chromatographic logD came out at 4.9. Besides, the fraction unbound in [10] was 0.04.
